Results on 22 compounds are retold here after patent publication US9073853B2, “Cycloalkane carboxylic acid derivatives as CXCR3 receptor antagonists” (Sanofi, priority 2011, dated 2015).

pIC50: −log10 of the molar value.

For the assay, the target named is human CXCR3-A receptor (Homo sapiens (Human), UniProt P49682). As to the kind of experiment: 125I-CXCL10 competition radioligand binding assay. The settings on record: displacement of 125I-CXCL10 from membranes of CHO cells expressing human recombinant CXCR3-A. Here is the method: IC50 values were determined for the test compounds and used to explore the structure-activity relationships (SAR). […] This cell line was registered in Sanofi-Aventis cell line bank. […] Cell suspension was diluted with PBS and cells were collected with centrifugation at 230 g for 10 minutes at 10° C. with a Juan centrifuge. […] The supernatant was carefully collected and centrifuged at 100,000×g for 60 min at 4° with a Beckman Avanti J30 centrifuge. […] Protein concentration was determined with Bio-Rad protein assay (Cat No 500-0006). Membrane aliquots were stored at -80° C. […] The composition of the binding assay buffer was determined in a course of detailed optimization procedure. […] Binding reaction was initiated by adding of membranes (10-20 μg proteins, approximately 5×10^5 cell equivalents) to the reaction mixture. After 60 minutes of incubation at 25° C. the reaction was terminated by rapid filtration over GF/B glass fiber filters that were pre-soaked with 0.5% polyethyleneimine (Fluka Analytical, P3143) for 1 hour, using a Skatron cell harvester device. Filters then were washed with 8 ml of ice-cold wash buffer (modified binding buffer in which BSA was omitted and the concentration of NaCl was adjusted to 500 mM concentration). The radioactivity retained on the filters was measured by a Wizard 1470 Automatic Gamma counter. Test compounds were dissolved prior to the binding assay at a concentration of 10 mM in DMSO. Stock solutions were stored at -20° C. for not longer than 3 months. […] Before adding these solutions of test compound to the binding reaction mixture, an intermediate dilution procedure was applied, in which 30 μL of each solution sample was transferred into a dilution tube containing 970 μL of binding assay buffer. […] The IC50 values and Hill slopes for competition binding data were obtained using nonlinear four-parametric curve fitting method.
Chain of human CXCR3-A receptor (P49682 whole entry): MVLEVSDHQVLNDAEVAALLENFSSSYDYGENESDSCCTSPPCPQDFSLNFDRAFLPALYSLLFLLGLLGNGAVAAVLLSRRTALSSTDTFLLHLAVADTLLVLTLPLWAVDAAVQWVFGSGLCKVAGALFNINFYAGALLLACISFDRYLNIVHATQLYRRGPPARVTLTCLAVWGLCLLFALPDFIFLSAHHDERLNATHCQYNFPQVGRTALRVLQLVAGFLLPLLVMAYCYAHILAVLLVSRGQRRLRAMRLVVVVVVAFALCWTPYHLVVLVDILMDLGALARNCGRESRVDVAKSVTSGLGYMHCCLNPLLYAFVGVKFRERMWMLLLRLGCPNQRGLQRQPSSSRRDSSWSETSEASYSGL
Turning to `COc1cc(CN(C[C@H]2CC[C@H](C(=O)O)CC2)C2CCc3cc(Cl)ccc32)ccc1CCCN1C(=O)CCC1=O` (stereo partly drawn) [Example 44, trans-4-[((5-Chloro-indan-1-yl)-{4-[3-(2,5-dioxo-pyrrolidin-1-yl)-propyl]-3-methoxy-benzyl}-amino)-methyl]-cyclohexanecarboxylic acid], the pIC50 was 6.39.

With `CC(c1ccc2c(c1)CCO2)N(Cc1ccc(CCCN2C(=O)CCC2=O)c(Cl)c1)C[C@H]1CC[C@H](C(=O)O)CC1` (stereo partly drawn) [Example 47, trans-4-({{3-Chloro-4-[3-(2,5-dioxo-pyrrolidin-1-yl)-propyl]-benzyl}-[1-(2,3-dihydro-benzofuran-5-yl)-ethyl]-amino}-methyl)-cyclohexanecarboxylic acid], the pIC50 is 6.10.

In the case of `COc1cc(CN(C[C@H]2CC[C@H](C(=O)O)CC2)C2CCc3cc(Cl)ccc32)ccc1OCCn1c(=O)ccn(C)c1=O` (stereo partly drawn) [Example 48, trans-4-[((5-Chloro-indan-1-yl)-{3-methoxy-4-[2-(3-methyl-2,6-dioxo-3,6-dihydro-2H-pyrimidin-1-yl)-ethoxy]-benzyl}-amino)-methyl]-cyclohexanecarboxylic acid], the pIC50 was 6.39.

In the case of `COc1cc(CN(C[C@H]2CC[C@H](C(=O)O)CC2)C(C)c2ccc3c(c2)CCO3)ccc1C1CC1CN1C(=O)CCC1=O` (stereo partly drawn) [Example 49, trans-4-[([1-(2,3-Dihydro-benzofuran-5-yl)-ethyl]-{4-[2-(2,5-dioxo-pyrrolidin-1-ylmethyl)-cyclopropyl]-3-methoxy-benzyl}-amino)-methyl]-cyclohexanecarboxylic acid], the pIC50 is 6.13.

In the case of `COc1cc(CN(C[C@H]2CC[C@H](C(=O)O)CC2)C2CCc3cc(Cl)ccc32)ccc1CCCN1C(=O)CN(C)C1=O` (stereo partly drawn) [Example 50, trans-4-[((5-Chloro-indan-1-yl)-{3-methoxy-4-[3-(3-methyl-2,5-dioxo-imidazolidin-1-yl)-propyl]-benzyl}-amino)-methyl]-cyclohexanecarboxylic acid], the pIC50 was 5.91.

With `COc1cc(CN(C[C@H]2CC[C@H](C(=O)O)CC2)[C@@H](C)c2ccc(Cl)cc2)ccc1CCCN1C(=O)CN(C)C1=O` [Example 51, trans-4-[([(S)-1-(4-Chloro-phenyl)-ethyl]-{3-methoxy-4-[3-(3-methyl-2,5-dioxo-imidazolidin-1-yl)-propyl]-benzyl}-amino)-methyl]-cyclohexanecarboxylic acid], the pIC50 was 6.80.

In the case of `COc1cc(CN(C[C@H]2CC[C@H](C(=O)O)CC2)C2CCc3cc(Cl)ccc32)ccc1OCCN1C(=O)CN(C)C1=O` (stereo partly drawn) [Example 52, trans-4-[((5-Chloro-indan-1-yl)-{3-methoxy-4-[2-(3-methyl-2,5-dioxo-imidazolidin-1-yl)-ethoxy]-benzyl}-amino)-methyl]-cyclohexanecarboxylic acid], the pIC50 was 6.75.

With `COc1cc(CN(C[C@H]2CC[C@H](C(=O)O)CC2)[C@@H](C)c2ccc(Cl)cc2)ccc1OCCN1C(=O)CN(C)C1=O` [Example 53, trans-4-[([(S)-1-(4-Chloro-phenyl)-ethyl]-{3-methoxy-4-[2-(3-methyl-2,5-dioxo-imidazolidin-1-yl)-ethoxy]-benzyl}-amino)-methyl]-cyclohexanecarboxylic acid], the pIC50 is 6.10.

For `Cc1cc(CN(C[C@H]2CC[C@H](C(=O)O)CC2)[C@@H](C)c2ccc(Cl)cc2)ccc1CCCN1C(=O)CCC1=O` [Example 54, trans-4-[([(S)-1-(4-Chloro-phenyl)-ethyl]-{4-[3-(2,5-dioxo-pyrrolidin-1-yl)-propyl]-3-methyl-benzyl}-amino)-methyl]-cyclohexanecarboxylic acid], the pIC50 was 6.32.

As for `COc1cc(CN(C[C@H]2CC[C@H](C(=O)O)CC2)[C@@H](C)c2ccc(Cl)cc2)ccc1C#CCN1C(=O)CCC1=O` [Example 55, trans-4-[([(S)-1-(4-Chloro-phenyl)-ethyl]-{4-[3-(2,5-dioxo-pyrrolidin-1-yl)-prop-1-ynyl]-3-methoxy-benzyl}-amino)-methyl]-cyclohexanecarboxylic acid], the pIC50 was 5.18.

Turning to `COc1cc(CN(C[C@H]2CC[C@H](C(=O)O)CC2)[C@@H](C)c2ccc(Cl)cc2)ccc1CCCN1C(=O)CCC1=O` [Example 56, trans-4-[([(S)-1-(4-Chloro-phenyl)-ethyl]-{4-[3-(2,5-dioxo-pyrrolidin-1-yl)-propyl]-3-methoxy-benzyl}-amino)-methyl]-cyclohexanecarboxylic acid], the pIC50 was 6.67.

`Cc1cc(CN(C[C@H]2CC[C@H](C(=O)O)CC2)C2CCc3cc(Cl)ccc32)ccc1OCCN1C(=O)CN(C)C1=O` (stereo partly drawn) [Example 57, trans-4-[((5-Chloro-indan-1-yl)-{3-methyl-4-[2-(3-methyl-2,5-dioxo-imidazolidin-1-yl)-ethoxy]-benzyl}-amino)-methyl]-cyclohexanecarboxylic acid]: the pIC50 is 6.70.

For the compound `Cc1cc(CN(C[C@H]2CC[C@H](C(=O)O)CC2)[C@@H](C)c2ccc(Cl)cc2)ccc1OCCn1c(=O)ccn(C)c1=O` [Example 58, trans-4-[([(S)-1-(4-Chloro-phenyl)-ethyl]-{3-methyl-4-[2-(3-methyl-2,6-dioxo-3,6-dihydro-2H-pyrimidin-1-yl)-ethoxy]-benzyl}-amino)-methyl]-cyclohexanecarboxylic acid], the pIC50 was 6.77.

On to `COc1cc(CN(C[C@H]2CC[C@H](C(=O)O)CC2)C(C)c2ccc3c(c2)CCO3)ccc1OCCn1c(=O)ccn(C)c1=O` (stereo partly drawn) [Example 59, trans-4-[([1-(2,3-Dihydro-benzofuran-5-yl)-ethyl]-{3-methoxy-4-[2-(3-methyl-2,6-dioxo-3,6-dihydro-2H-pyrimidin-1-yl)-ethoxy]-benzyl}-amino)-methyl]-cyclohexanecarboxylic acid], for which the pIC50 is 6.71.

With `Cc1cc(CN(C[C@H]2CC[C@H](C(=O)O)CC2)C(C)c2ccc3c(c2)CCO3)ccc1OCCn1c(=O)ccn(C)c1=O` (stereo partly drawn) [Example 60, trans-4-[([1-(2,3-Dihydro-benzofuran-5-yl)-ethyl]-{3-methyl-4-[2-(3-methyl-2,6-dioxo-3,6-dihydro-2H-pyrimidin-1-yl)-ethoxy]-benzyl}-amino)-methyl]-cyclohexanecarboxylic acid], the pIC50 is 6.46.

As to `Cc1cc(CN(C[C@H]2CC[C@H](C(=O)O)CC2)C(C)c2ccc(C#N)cc2)ccc1OCCN1C(=O)CCC1=O` (stereo partly drawn) [Example 61, trans-4-[([1-(4-Cyano-phenyl)-ethyl]-{4-[2-(2,5-dioxo-pyrrolidin-1-yl)-ethoxy]-3-methyl-benzyl}-amino)-methyl]-cyclohexanecarboxylic acid], the pIC50 is 6.99.

For `COc1cc(CN(C[C@H]2CC[C@H](C(=O)O)CC2)C(C)c2ccc(C#N)cc2)ccc1OCCn1c(=O)ccn(C)c1=O` (stereo partly drawn) [Example 62, trans-4-[([1-(4-Cyano-phenyl)-ethyl]-{3-methoxy-4-[2-(3-methyl-2,6-dioxo-3,6-dihydro-2H-pyrimidin-1-yl)-ethoxy]-benzyl}-amino)-methyl]-cyclohexanecarboxylic acid], the pIC50 was 6.70.

In the case of `CCC(c1ccc(Cl)cc1)N(Cc1ccc(OCCN2C(=O)CCC2=O)c(OC)c1)C[C@H]1CC[C@H](C(=O)O)CC1` (stereo partly drawn) [Example 63, trans-4-[([1-(4-Chloro-phenyl)-propyl]-{4-[2-(2,5-dioxo-pyrrolidin-1-yl)-ethoxy]-3-methoxy-benzyl}-amino)-methyl]-cyclohexanecarboxylic acid], the pIC50 is 7.21.

With `CCC(c1ccc(Cl)cc1)N(Cc1ccc(OCCn2c(=O)ccn(C)c2=O)c(C)c1)C[C@H]1CC[C@H](C(=O)O)CC1` (stereo partly drawn) [Example 64, trans-4-[([1-(4-Chloro-phenyl)-propyl]-{3-methyl-4-[2-(3-methyl-2,6-dioxo-3,6-dihydro-2H-pyrimidin-1-yl)-ethoxy]-benzyl}-amino)-methyl]-cyclohexanecarboxylic acid], the pIC50 was 6.31.

Consider `CCC(c1ccc(Cl)cc1)N(Cc1ccc(OCCN2C(=O)CCC2=O)c(C)c1)C[C@H]1CC[C@H](C(=O)O)CC1` (stereo partly drawn) [Example 65, trans-4-[([1-(4-Chloro-phenyl)-propyl]-{4-[2-(2,5-dioxo-pyrrolidin-1-yl)-ethoxy]-3-methyl-benzyl}-amino)-methyl]-cyclohexanecarboxylic acid], for which the pIC50 was 6.92.

On to `CCC(c1ccc2c(c1)CCO2)N(Cc1ccc(CCCN2C(=O)CCC2=O)c(OC)c1)C[C@H]1CC[C@H](C(=O)O)CC1` (stereo partly drawn) [Example 66, trans-4-[([1-(2,3-Dihydro-benzofuran-5-yl)-propyl]-{4-[3-(2,5-dioxo-pyrrolidin-1-yl)-propyl]-3-methoxy-benzyl}-amino)-methyl]-cyclohexanecarboxylic acid], for which the pIC50 is 7.07.

As to `CCC(c1ccc(Cl)cc1)N(Cc1ccc(OCCN2C(=O)CN(C)C2=O)c(OC)c1)C[C@H]1CC[C@H](C(=O)O)CC1` (stereo partly drawn) [Example 67, trans-4-[([1-(4-Chloro-phenyl)-propyl]-{3-methoxy-4-[2-(3-methyl-2,5-dioxo-imidazolidin-1-yl)-ethoxy]-benzyl}-amino)-methyl]-cyclohexanecarboxylic acid], the pIC50 is 7.11.
